Measured values reported in ChEMBL document CHEMBL5505984, “Carbazole to indolazepinone scaffold morphing leads to potent cell-active dengue antivirals” (Eur J Med Chem, 2024).
Several values for one entry are separate records, joined by “and”; a condition that tells them apart may be missing. Equal entries are not always repeated. Activity calls are given as the source filed them. No cut-off for these calls is given here.

Assays:
dengue virus type 2 [1] = assay: Antiviral activity Dengue virus 2 by cell based assay; type: functional, organism-based
dengue virus type 2 [2] = assay: Antiviral activity against Dengue virus 2 infected in human Huh-7 cells assessed as clearance of viral RNA relative to control; type: functional; design: concentration or dose not given beside the values
dengue virus type 2 [3] = assay: Antiviral activity against Dengue virus 2 infected in human Huh-7 cells assessed as clearance of viral RNA at 100 uM; type: functional, organism-based
dengue virus type 2 [4] = assay: Antiviral activity against Dengue virus 2 infected in human Huh-7 cells assessed as reduction in plaque reduction relative to control; type: functional; design: scale not given: the % may be the effect or the level left
dengue virus type 2 [5] = assay: Antiviral activity against Dengue virus 2 infected in human Huh-7 cells assessed as clearance of viral RNA at 10 uM; type: functional, organism-based
dengue virus type 1 = assay: Antiviral activity Dengue virus 1 by cell based assay; type: functional, organism-based
dengue virus type 2 [6] = assay: Antiviral activity Dengue virus 2 D2Y10 by cell based assay; type: functional, organism-based
dengue virus type 2 [7] = assay: Antiviral activity against Dengue virus 2 infected in human Huh-7 cells assessed as inhibition of plaque formation relative to control; type: functional
dengue virus type 3 = assay: Antiviral activity Dengue virus 3 by cell based assay; type: functional, organism-based
dengue virus type 4 = assay: Antiviral activity Dengue virus 4 by cell based assay; type: functional, organism-based
Zika virus = assay: Antiviral activity Zika virus by cell based assay; type: functional, organism-based
dengue virus type 2 [8] = assay: Antiviral activity against Dengue virus 2 D2Y10 infected in human THP-1 cells assessed as inhibition of secondary antibody dependent enhancement-driven infection relative to control; type: functional

## N/C(=N\O)c1ccc(CNC(=O)c2cn(Cc3cccc(Br)c3)c3ccc(-c4cccc(/C(N)=N/O)c4)cc23)cc1
Dengue virus type 2 [1]
  EC50: 2270 nM
Dengue virus type 2 [2]
  Activity: >95%

## N/C(=N\O)c1cccc(-c2ccc3c(C(=O)N4CCN(c5cccc(/C(N)=N/O)c5)CC4)cn(Cc4cccc(Br)c4)c3c2)c1
Dengue virus type 2 [1]
  EC50: 1230 nM
Dengue virus type 2 [3]
  Activity: inactive

## N/C(=N\O)c1cccc(-c2cc3c4c(cn(Cc5cccc(Br)c5)c4c2)CCN(Cc2ccc(/C(N)=N/O)s2)C3=O)c1
Dengue virus type 2 [4]
  Activity: <85%

## N/C(=N\O)c1cccc(NC(=O)c2cn(Cc3cccc(Br)c3)c3ccc(-c4cccc(/C(N)=N/O)c4)cc23)c1
Dengue virus type 2 [1]
  EC50: 1800 nM
Dengue virus type 2 [2]
  Activity: >=95% and >95%

## N/C(=N\O)c1cccc(-c2ccc3c(C(=O)N4CCN(c5cccc(/C(N)=N/O)c5)CC4)cn(Cc4ccc(Br)cc4)c3c2)c1
Dengue virus type 2 [1]
  EC50: 1130 nM
Dengue virus type 2 [3]
  Activity: inactive

## N/C(=N\O)c1cccc(NC(=O)c2cn(CCn3cc(Br)cn3)c3ccc(-c4cccc(/C(N)=N/O)c4)cc23)c1
Dengue virus type 2 [5]
  Activity: inactive
Dengue virus type 2 [1]
  EC50: 1830 nM

## N/C(=N\O)c1cccc(CN2CCc3cn(Cc4cccc(Br)c4)c4cc(-c5cccc(/C(N)=N/O)c5)cc(c34)C2=O)c1
Dengue virus type 2 [1]
  EC50: 1350 nM
Dengue virus type 2 [2]
  Activity: >95%

## N/C(=N\O)c1cccc(NC(=O)c2nn(Cc3cccc(Br)c3)c3ccc(-c4cccc(/C(N)=N/O)c4)cc23)c1
Dengue virus type 2 [1]
  EC50: 2190 nM
Dengue virus type 2 [2]
  Activity: inactive

## N/C(=N\O)c1cccc(NC(=O)c2cn(Cc3ccc(Br)cc3)c3ccc(-c4cccc(/C(N)=N/O)c4)cc23)c1
Dengue virus type 2 [1]
  EC50: 4480 nM
Dengue virus type 2 [2]
  Activity: >95%

## N/C(=N\O)c1ccc(CN2CCc3cn(Cc4ccc(Br)cc4)c4cc(-c5cccc(/C(N)=N/O)c5)cc(c34)C2=O)cc1
Dengue virus type 1
  EC50: 1260 nM
Dengue virus type 2 [6]
  EC50: 100 nM
Dengue virus type 2 [7]
  inhibition (INH): 97%
Dengue virus type 2 [1]
  EC50: 100 nM
Dengue virus type 3
  EC50: 120 nM
Dengue virus type 4
  EC50: 950 nM
Zika virus
  EC50: 1760 nM
Dengue virus type 2 [2]
  Activity: >95%
Dengue virus type 2 [8]
  inhibition (INH): 100%

## N/C(=N\O)c1ccc(CN2CCc3cn(Cc4ccc(Br)cc4)c4cc(-c5ccc(/C(N)=N/O)s5)cc(c34)C2=O)cc1
Dengue virus type 1
  EC50: 790 nM
Dengue virus type 2 [6]
  EC50: 330 nM
Dengue virus type 2 [7]
  inhibition (INH): 100%
Dengue virus type 2 [1]
  EC50: 610 nM
Dengue virus type 3
  EC50: 160 nM
Dengue virus type 4
  EC50: 2250 nM
Zika virus
  EC50: 1420 nM
Dengue virus type 2 [2]
  Activity: >95%
Dengue virus type 2 [8]
  inhibition (INH): 60%

## N/C(=N\O)c1ccc(CN2CCc3cn(Cc4cccc(Br)c4)c4cc(-c5ccc(/C(N)=N/O)cc5)cc(c34)C2=O)cc1
Dengue virus type 2 [4]
  Activity: <85%

## N/C(=N\O)c1cccc(CNC(=O)c2cn(Cc3cccc(Br)c3)c3ccc(-c4cccc(/C(N)=N/O)c4)cc23)c1
Dengue virus type 2 [1]
  EC50: 1000 nM
Dengue virus type 2 [2]
  Activity: >95%

## N/C(=N\O)c1cccc(CNC(=O)c2cn(Cc3cccc(Br)c3)c3cc(-c4cccc(/C(N)=N/O)c4)ccc23)c1
Dengue virus type 2 [1]
  EC50: 6900 nM
Dengue virus type 2 [2]
  Activity: >95%

## N/C(=N\O)c1ccc(CN2CCc3cn(Cc4ccc(Br)nc4)c4cc(-c5cccc(/C(N)=N/O)c5)cc(c34)C2=O)cc1
Dengue virus type 2 [1]
  EC50: 960 nM
Dengue virus type 2 [2]
  Activity: >95%

## C#C[C@@]1(O)[C@H](O)[C@@H](CO)O[C@H]1n1ccc2c(N)ncnc21
Dengue virus type 1
  EC50: 860 nM
Dengue virus type 2 [6]
  EC50: 780 nM
Dengue virus type 2 [7]
  inhibition (INH): 100%
Dengue virus type 2 [1]
  EC50: 640 nM
Dengue virus type 3
  EC50: 870 nM
Dengue virus type 4
  EC50: 110 nM
Zika virus
  EC50: 120 nM
Dengue virus type 2 [8]
  inhibition (INH): 100%

## N/C(=N\O)c1cccc(NC(=O)c2nn(Cc3cccc(Br)c3)cc2NC(=O)c2cccc(/C(N)=N/O)c2)c1
Dengue virus type 2 [1]
  EC50: 7020 nM

## N/C(=N\O)c1ccc(CN2CCc3cn(Cc4cccc(Br)c4)c4cc(-c5cccc(/C(N)=N/O)c5)cc(c34)C2=O)cc1
Dengue virus type 1
  EC50: 1030 nM
Dengue virus type 2 [6]
  EC50: 380 nM
Dengue virus type 2 [7]
  inhibition (INH): 95%
Dengue virus type 2 [1]
  EC50: 660 nM
Dengue virus type 3
  EC50: 1440 nM
Dengue virus type 4
  EC50: 1240 nM
Zika virus
  EC50: 3400 nM
Dengue virus type 2 [2]
  Activity: >95%
Dengue virus type 2 [8]
  inhibition (INH): 100%

## N/C(=N\O)c1cccc(-c2ccc3c(C(=O)N4CCN(c5cccc(/C(N)=N/O)c5)CC4)cn(Cc4ccc(Br)nc4)c3c2)c1
Dengue virus type 2 [1]
  EC50: 1000 nM
Dengue virus type 2 [3]
  Activity: inactive
